One block for each compound: values may come before it. Active and inactive are the calls of the source. The rule behind the calls is not given here.
Key:
[1] = Plasma concentration in C215 transfected MC38 cells implanted C57BL/6 mouse at 5 mg/kg, po dosed as cassette formulation and measured at 1 hr after post dose by LC-MS analysis; assay type: ADME, organism-based
[2] = Plasma concentration in C215 transfected MC38 cells implanted C57BL/6 mouse at 1 mg/kg, iv dosed as cassette formulation and measured at 1 hr after post dose by LC-MS analysis; assay type: ADME, organism-based
[3] = Plasma concentration in C215 transfected MC38 cells implanted C57BL/6 mouse at 1 mg/kg, iv dosed as cassette formulation and measured at 4 hrs after post dose by LC-MS analysis; assay type: ADME, organism-based
[4] = Plasma concentration in C215 transfected MC38 cells implanted C57BL/6 mouse at 1 mg/kg, iv dosed as cassette formulation and measured at 0.083 hrs after post dose by LC-MS analysis; assay type: ADME, organism-based
[5] = Plasma concentration in C215 transfected MC38 cells implanted C57BL/6 mouse assessed as N-(5-bromo-3-hydroxypyrazin-2-yl)-1-(3,4-dichlorophenyl)methanesulfonamide level at 5 mg/kg, po dosed as cassette formulation and measured at 0.5 hrs after post dose by LC-MS analysis; assay type: ADME, organism-based; conditions: in vivo
[6] = Plasma concentration in C215 transfected MC38 cells implanted C57BL/6 mouse assessed as N-(5-bromo-3-hydroxypyrazin-2-yl)-1-(3,4-dichlorophenyl)methanesulfonamide level at 1 mg/kg, iv dosed as cassette formulation and measured at 4 hrs after post dose by LC-MS analysis; assay type: ADME, organism-based; conditions: in vivo
[7] = Plasma concentration in C215 transfected MC38 cells implanted C57BL/6 mouse at 5 mg/kg, po dosed as cassette formulation and measured at 7 hrs after post dose by LC-MS analysis; assay type: ADME, organism-based
[8] = Plasma concentration in C215 transfected MC38 cells implanted C57BL/6 mouse assessed as N-(5-bromo-3-hydroxypyrazin-2-yl)-1-(3,4-dichlorophenyl)methanesulfonamide level at 1 mg/kg, iv dosed as cassette formulation and measured at 2 hrs after post dose by LC-MS analysis; assay type: ADME, organism-based; conditions: in vivo
[9] = Plasma concentration in C215 transfected MC38 cells implanted C57BL/6 mouse assessed as N-(5-bromo-3-hydroxypyrazin-2-yl)-1-(3,4-dichlorophenyl)methanesulfonamide level at 5 mg/kg, po dosed as cassette formulation and measured at 4 hrs after post dose by LC-MS analysis; assay type: ADME, organism-based; conditions: in vivo
[10] = Plasma concentration in C215 transfected MC38 cells implanted C57BL/6 mouse assessed as N-(5-bromo-3-hydroxypyrazin-2-yl)-1-(3,4-dichlorophenyl)methanesulfonamide level at 5 mg/kg, po dosed as cassette formulation and measured at 7 hrs after post dose by LC-MS analysis; assay type: ADME, organism-based; conditions: in vivo
[11] = Plasma concentration in C215 transfected MC38 cells implanted C57BL/6 mouse assessed as N-(5-bromo-3-hydroxypyrazin-2-yl)-1-(3,4-dichlorophenyl)methanesulfonamide level at 5 mg/kg, po dosed as cassette formulation and measured at 2 hrs after post dose by LC-MS analysis; assay type: ADME, organism-based; conditions: in vivo
[12] = Plasma concentration in C215 transfected MC38 cells implanted C57BL/6 mouse assessed as N-(5-bromo-3-hydroxypyrazin-2-yl)-1-(3,4-dichlorophenyl)methanesulfonamide level at 1 mg/kg, iv dosed as cassette formulation and measured at 7 hrs after post dose by LC-MS analysis; assay type: ADME, organism-based; conditions: in vivo
[13] = Plasma concentration in C215 transfected MC38 cells implanted C57BL/6 mouse at 5 mg/kg, po dosed as cassette formulation and measured at 2 hrs after post dose by LC-MS analysis; assay type: ADME, organism-based
[14] = Plasma concentration in C215 transfected MC38 cells implanted C57BL/6 mouse assessed as N-(5-bromo-3-hydroxypyrazin-2-yl)-1-(3,4-dichlorophenyl)methanesulfonamide level at 1 mg/kg, iv dosed as cassette formulation and measured at 1 hr after post dose by LC-MS analysis; assay type: ADME, organism-based; conditions: in vivo
[15] = Plasma concentration in C215 transfected MC38 cells implanted C57BL/6 mouse at 1 mg/kg, iv dosed as cassette formulation and measured at 0.5 hrs after post dose by LC-MS analysis; assay type: ADME, organism-based
[16] = Plasma concentration in C215 transfected MC38 cells implanted C57BL/6 mouse assessed as N-(5-bromo-3-hydroxypyrazin-2-yl)-1-(3,4-dichlorophenyl)methanesulfonamide level at 5 mg/kg, po dosed as cassette formulation and measured at 1 hr after post dose by LC-MS analysis; assay type: ADME, organism-based; conditions: in vivo
[17] = Plasma concentration in C215 transfected MC38 cells implanted C57BL/6 mouse assessed as N-(5-bromo-3-hydroxypyrazin-2-yl)-1-(3,4-dichlorophenyl)methanesulfonamide level at 1 mg/kg, iv dosed as cassette formulation and measured at 0.083 hrs after post dose by LC-MS analysis; assay type: ADME, organism-based; conditions: in vivo
[18] = Plasma concentration in C215 transfected MC38 cells implanted C57BL/6 mouse assessed as N-(5-bromo-3-hydroxypyrazin-2-yl)-1-(3,4-dichlorophenyl)methanesulfonamide level at 1 mg/kg, iv dosed as cassette formulation and measured at 0.5 hrs after post dose by LC-MS analysis; assay type: ADME, organism-based; conditions: in vivo
[19] = Plasma concentration in C215 transfected MC38 cells implanted C57BL/6 mouse at 1 mg/kg, iv dosed as cassette formulation and measured at 7 hrs after post dose by LC-MS analysis; assay type: ADME, organism-based
[20] = Plasma concentration in C215 transfected MC38 cells implanted C57BL/6 mouse at 5 mg/kg, po dosed as cassette formulation and measured at 0.5 hrs after post dose by LC-MS analysis; assay type: ADME, organism-based
[21] = Plasma concentration in C215 transfected MC38 cells implanted C57BL/6 mouse at 1 mg/kg, iv dosed as cassette formulation and measured at 2 hrs after post dose by LC-MS analysis; assay type: ADME, organism-based
[22] = Plasma concentration in C215 transfected MC38 cells implanted C57BL/6 mouse at 5 mg/kg, po dosed as cassette formulation and measured at 4 hrs after post dose by LC-MS analysis; assay type: ADME, organism-based
MC-38 = assay: Antitumor activity against C215 transfected MC38 cells implanted in C57BL/6 mouse assessed as inhibition of tumor growth at 30 mg/kg, po dosed daily for 16 days starting following day of tumor inoculation; assay type: functional, organism-based

concentration at 1 h [1]: 69.4 µM
concentration at 1 h [2]: 17.5 µM
concentration at 4 h [3]: 9.2 µM
concentration at 0.083 h [4]: 25.2 µM
concentration [5]: 0.57 µM
concentration [6]: 0.21 µM
concentration at 7 h [7]: 73.5 µM
concentration [8]: 0.32 µM
concentration [9]: 0.63 µM
concentration [10]: 1.1 µM
concentration [11]: 0.8 µM
concentration [12]: 0.2 µM
concentration at 2 h [13]: 78.9 µM
concentration [14]: 0.32 µM
concentration at 0.5 h [15]: 16.8 µM
concentration [16]: 0.86 µM
concentration [17]: 0.12 µM
concentration [18]: 0.32 µM
concentration at 7 h [19]: 6.2 µM
concentration at 0.5 h [20]: 51.7 µM
concentration at 2 h [21]: 14.9 µM
concentration at 4 h [22]: 59.4 µM
Compound: COc1nc(Br)cnc1NS(=O)(=O)Cc1ccc(Cl)c(Cl)c1

Compound: COc1ncc(S(=O)(=O)Nc2cncc(Cl)c2O)cc1Br
TGI (MC-38): Active

Reference: ChEMBL document CHEMBL4418490, “N-(heteroaryl)-sulfonamide derivatives useful as s100-inhibitors” (2018)
